Results on 14 compounds are retold here after patent US20250346613A1, “BORIC ACID PROTEASOME INHIBITOR AND USE THEREOF” (ARTIVILA BIOPHARMA, priority 2022, published 2025).

The test system of the assay is MM.1S cell strain. Kind of assay: Inhibitory activity of cell strain (CellTiter-Glo). It is filed as cell-based. The following applies: Homo sapiens, MM1.S, 72 h incubation. On the procedure: The cells used in this experiment were MM.1S cell strain and the detection reagent was CellTiter-Glo (Promega). […] The experimental process was described below. MM.1S cells in the logarithmic growth phase and in a good status were digested into individual cells by trypsin, centrifuged to remove the supernatant, and counted. Cells were diluted and 100 μL of cell suspension per well was added to a 96-well enzyme-coated plate at 1×10^5 cells per well. The wells containing only RPMI1640 complete medium were set as blank control. The 96-well plate was transferred to a 37° C. incubator containing 5% CO2 for 24 h of incubation.
The compound was accurately weighed and dissolved in DMSO to a concentration of 10^−2 M. 10 μL of compound was pipetted to 190 μL of DMSO to given a 5×10^−4 M compound. 6 μL of the compound (5×10^−5 M) was pipetted to a new 96-well microplate containing 194 μL of RPMI1640 complete medium and diluted in a 3-fold gradient dilution. 50 μL of the diluted compound was transferred to the 96-well microplate containing the cells such that the final compound concentrations were 5×10^−7 M, 1.67×10^−7 M, 5.55×10^−8 M, 1.85×10^−8 M, 6.17×10^−9 M, 2.06×10^−9 M, 6.86×10^−10 M, 2.29×10^−10 M, and 0 M. For the 0 M, no compound was added, and the same concentration of DMSO was added. The marketed drug bortezomib was used as a positive control. The 96-well microplate added with compounds was placed in the 37° C. incubator for 72 h of incubation.
At the predetermined detection time, the 96-well microplate to be detected was placed at room temperature, added with 40 μL of detection reagent (CellTiter-Glo) per well, and covered with a dark lid or piece of aluminium foil. The contents were mixed on an orbit oscillator for 10 min for complete cell lysis, with a vibration speed of 150 rpm. Luminescence values were detected on a multifunctional microplate reader (BioTek Synergy H1 Hybrid Multi-Mode Reade).
The data were exported and the percentage inhibition was calculated according to the following formula: Inhibition rate=(maximum signal value-compound signal value)/(maximum signal value−blank signal value)×100%, • wherein maximum signal was obtained from alone DMSO-treated cells, and blank signal was obtained from wells containing only culture medium.

A value given as a limit tells only on which side of the number the result lay.

For the compound `[2H]/C(C(=O)NCc1ccccc1)=C(/[2H])C(=O)N[C@@H](Cc1ccccc1)B(O)O` [Example 17, (R,E)-(1-(4-(benzylamino)-4-oxobut-2-enamido-2,3-D2)-2-phenylethyl)boric acid], the IC50 (as a rule, the concentration at which inhibition is half-maximal) was 50 to 200 nM.

In the case of `COc1cccc(CNC(=O)C(F)C(=O)N[C@@H](Cc2coc3ccccc23)B(O)O)c1` (stereo partly drawn) [Example 104, ((1R)-2-(benzofuran-3-yl)-1-(2-fluoro-3-((3-methoxybenzyl)amino)-3-oxopropionamido)ethyl)boric acid], the IC50 was no more than 50 nM.

On to `COc1cccc(CNC(=O)C(Cc2ccccc2)C(=O)N[C@@H](Cc2ccc(-c3ccccc3)cc2)B(O)O)c1` (stereo partly drawn) [Example 72, ((1R)-2-([1,1′-biphenyl]-4-yl)-1-(2-benzyl-3-((3-methoxybenzyl)amino)-3-oxopropionamido)ethyl)boric acid], for which the IC50 is no more than 50 nM.

On to `COc1cccc(CNC(=O)C(F)C(=O)N[C@@H](Cc2ccccc2)B(O)O)c1` (stereo partly drawn) [Example 102, ((1R)-1-(2-fluoro-3-((3-methoxybenzyl)amino)-3-oxopropionamido)-2-phenylethyl)boric acid], for which the IC50 is no more than 50 nM.

In the case of `O=C(/C=C/C(=O)N[C@@H](Cc1ccccc1)B(O)O)NCc1cc(Cl)ccc1Cl` [Example 12], the IC50 was 200 to 500 nM.

For `Cc1ccc(C[C@H](NC(=O)C(F)(F)C(=O)NCc2cccc(OC(F)(F)F)c2)B(O)O)cc1` [Example 98, (R)-(1-(2,2-difluoro-3-oxo-3-((3-(trifluoromethoxy)benzyl)amino)propionamido)-2-(p-tolyl)ethyl)boric acid], the 50% inhibitory concentration (IC50) fell in the range of 200 to 500 nM.

Regarding `COc1cccc(CNC(=O)C(Cc2ccccc2)C(=O)N[C@@H](Cc2coc3ccccc23)B(O)O)c1` (stereo partly drawn) [Example 71, ((1R)-2-(benzofuran-3-yl)-1-(2-benzyl-3-((3-methoxybenzyl)amino)-3-oxopropionamido)ethyl)boric acid], the IC50 was no more than 50 nM.

For the compound `COc1cccc(NC(=O)C(C)C(=O)N[C@@H](Cc2ccccc2)B(O)O)c1` (stereo partly drawn) [Example 67, ((1R)-1-(3-((3-methoxyphenyl)amino)-2-methyl-3-oxopropionamido)-2-phenylethyl)boric acid], the IC50 was in the range of 50 to 200 nM.

Regarding `COc1cccc(CCNC(=O)C(C)C(=O)N[C@@H](Cc2ccccc2)B(O)O)c1` (stereo partly drawn) [Example 61, ((1R)-1-(3-((3-methoxyphenylethyl)amino)-2-methyl-3-oxopropionamido)-2-phenylethyl)boric acid], the IC50 was in the range of 50 to 200 nM.

Take `CC(C(=O)NCc1cccc(OC(F)(F)F)c1)C(=O)N[C@@H](Cc1ccc(-c2ccccc2)cc1)B(O)O` (stereo partly drawn) [Example 74, ((1R)-2-([1,1′-biphenyl]-4-yl)-1-(2-methyl-3-oxo-3-((3-(trifluoromethoxy)benzyl)amino)propanamido)ethyl)boronic acid]: the IC50 was no more than 50 nM.

Turning to `COc1cccc(CCNC(=O)C(F)C(=O)N[C@@H](Cc2coc3ccccc23)B(O)O)c1` (stereo partly drawn) [Example 101, ((1R)-2-(Benzofuran-3-yl)-1-(2-fluoro-3-((3-methoxyphenylethyl)amino)-3-oxopropionamido)ethyl)boric acid], the IC50 was no more than 50 nM.

Regarding `COc1ccc(NC(=O)C(C)C(=O)N[C@@H](Cc2ccc(C)cc2)B(O)O)cc1` (stereo partly drawn) [Example 70, ((1R)-1-(3-((4-methoxyphenyl)amino)-2-methyl-3-oxopropionamido)-2-(p-tolyl)ethyl)boric acid], the IC50 was 50 to 200 nM.

Regarding `O=C(NCc1cccc(OC(F)(F)F)c1)C(F)C(=O)N[C@@H](Cc1coc2ccccc12)B(O)O` (stereo partly drawn) [Example 97, ((1R)-2-(Benzofuran-3-yl)-1-(2-fluoro-3-oxo-3-((3-(trifluoromethoxy)benzyl)amino)propionamido)ethyl)boric acid], the IC50 was no more than 50 nM.

Turning to `Cc1ccc(C[C@H](NC(=O)C(C)C(=O)NCc2cccc(OC(F)(F)F)c2)B(O)O)cc1` (stereo partly drawn) [Example 86, ((1R)-1-(2-methyl-3-oxo-3-((3-(trifluoromethoxy)benzyl)amino)propionamido)-2-(p-tolyl)ethyl)boric acid], the IC50 is no more than 50 nM.
